From ChEMBL document CHEMBL5576038, “Design of a novel long-acting dual GLP-1/GIP receptor agonist” (Bioorg Med Chem, 2024)
Where a SMILES comes first, the peptide text is derived from it. [ ]: non-standard residue; d: D form. The star is where a group is joined. X1 = N[C@@H](CCCCNC(=O)CC[C@H](NC(=O)CCCCCCCCCCCCCCCCCCC(=O)O)C(=O)O)C(=O)NCCCC[C@H](N)C(=O)N[C@@H](CCCCNC(=O)C*)C(=O)O; X3 = O=C(O)CCCCCCCCCCCCCCCCC(=O)NCCOCCOCC(=O)N[C@@H](CCC(=O)N[C@@H](CCC(=O)N[C@@H](CCCCNC(=O)C*)C(=O)O)C(=O)O)C(=O)O; X5 = O=C(O)CCCCCCCCCCCCCCCCCCC(=O)N[C@@H](CCC(=O)NCCOCCOCC(=O)NCCOCCOCC(=O)N[C@@H](CCCCNC(=O)C*)C(=O)O)C(=O)O; Aib = CC(C)(N)C(=O)O

Experiments:
[1] = target: T1, Gastric inhibitory polypeptide receptor (Homo sapiens, UniProt P48546); test: Agonist activity at human GIPR expressed in CHO cells assessed as increase in cAMP production incubated for 30 mins by Eu-cAMP tracer based microplate reader analysis; type: functional, cell-based
T1 sequence (P48546 whole entry): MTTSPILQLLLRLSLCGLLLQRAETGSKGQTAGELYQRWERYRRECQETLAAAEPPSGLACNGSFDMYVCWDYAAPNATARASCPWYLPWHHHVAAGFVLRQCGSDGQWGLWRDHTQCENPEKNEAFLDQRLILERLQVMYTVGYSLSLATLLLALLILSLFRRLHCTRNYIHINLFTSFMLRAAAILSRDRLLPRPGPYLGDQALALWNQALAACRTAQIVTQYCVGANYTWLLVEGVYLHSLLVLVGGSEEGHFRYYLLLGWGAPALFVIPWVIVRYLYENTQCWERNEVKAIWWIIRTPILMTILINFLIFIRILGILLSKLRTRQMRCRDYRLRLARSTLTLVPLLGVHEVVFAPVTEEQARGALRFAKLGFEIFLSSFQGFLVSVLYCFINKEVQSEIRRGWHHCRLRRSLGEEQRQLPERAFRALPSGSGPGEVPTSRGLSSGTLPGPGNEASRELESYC

[2] = target: Glucagon-like peptide 1 receptor (Homo sapiens, UniProt P43220); test: Agonist activity at human GLP-1R expressed in CHO cells assessed as increase in cAMP production incubated for 30 mins by Eu-cAMP tracer based microplate reader analysis; type: functional, cell-based
Glucagon-like peptide 1 receptor, sequence (P43220 whole entry): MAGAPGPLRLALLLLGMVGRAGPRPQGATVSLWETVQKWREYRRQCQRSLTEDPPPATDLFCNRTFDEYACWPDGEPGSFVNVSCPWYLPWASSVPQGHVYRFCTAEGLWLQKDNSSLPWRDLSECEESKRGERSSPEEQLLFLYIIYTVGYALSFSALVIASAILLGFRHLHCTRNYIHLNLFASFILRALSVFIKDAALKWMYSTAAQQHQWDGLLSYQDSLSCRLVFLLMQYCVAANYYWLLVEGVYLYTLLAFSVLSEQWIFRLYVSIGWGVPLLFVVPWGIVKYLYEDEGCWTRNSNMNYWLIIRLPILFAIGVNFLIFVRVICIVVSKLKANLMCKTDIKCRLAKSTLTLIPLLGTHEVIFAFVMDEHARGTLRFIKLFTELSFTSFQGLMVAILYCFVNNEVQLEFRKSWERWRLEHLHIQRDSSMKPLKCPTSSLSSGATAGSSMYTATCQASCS

| Compound | EC50 [1] [pM] | EC50 [2] [pM] |
| --- | --- | --- |
| CC(C)C[C@H](NC(=O)[C@H](CC(C)C)NC(=O)[C@H](Cc1c[nH]c2ccccc12)NC(=O)[C@H](CSCC(=O)NCCCC[C@H](NC(=O)[C@@H](N)CCCCNC(=O)[C@@H](N)CCCCNC(=O)CC[C@H](NC(=O)CCCCCCCCCCCCCCCCCCC(=O)O)C(=O)O)C(=O)O)NC(=O)[C@@H](NC(=O)[C@H](Cc1ccccc1)NC(=O)[C@H](CC(C)C)NC(=O)[C@H](CCCCN)NC(=O)[C@H](C)NC(=O)[C@H](C)NC(=O)[C@H](CCC(N)=O)NC(=O)[C@H](CCCCN)NC(=O)[C@H](CCC(=O)O)NC(=O)[C@H](CC(C)C)NC(=O)[C@H](Cc1ccc(O)cc1)NC(=O)[C@H](Cc1ccc(O)cc1)NC(=O)[C@H](CO)NC(=O)[C@H](Cc1ccc(O)cc1)NC(=O)[C@H](CC(=O)O)NC(=O)[C@H](CO)NC(=O)[C@@H](NC(=O)[C@H](Cc1ccccc1)NC(=O)[C@@H](NC(=O)CNC(=O)[C@H](CCC(=O)O)NC(=O)C(C)(C)NC(=O)[C@@H](N)Cc1ccc(O)cc1)[C@@H](C)O)[C@@H](C)O)C(C)C)C(=O)N[C@@H](C)C(=O)NCC(=O)NCC(=O)N1CCC[C@H]1C(=O)N[C@@H](CO)C(=O)N[C@@H](CO)C(=O)NCC(=O)N[C@@H](C)C(=O)N1CCC[C@H]1C(=O)N1CCC[C@H]1C(=O)N1CCC[C@H]1C(=O)N[C@@H](CO)C(N)=O (H-Y[Aib]EGTFTSDYSYYLEKQAAKLFVC(X1)WLLAGGPSSGAPPPS-NH2) | 7200 | 290 |
| CC(C)C[C@H](NC(=O)[C@H](CC(C)C)NC(=O)[C@H](Cc1c[nH]c2ccccc12)NC(=O)[C@H](CCC(N)=O)NC(=O)[C@@H](NC(=O)[C@H](Cc1ccccc1)NC(=O)[C@H](CC(C)C)NC(=O)[C@H](CSCC(=O)NCCCC[C@H](NC(=O)COCCOCCNC(=O)COCCOCCNC(=O)CC[C@H](NC(=O)CCCCCCCCCCCCCCCCCCC(=O)O)C(=O)O)C(=O)O)NC(=O)[C@H](C)NC(=O)[C@H](C)NC(=O)[C@H](CCC(N)=O)NC(=O)[C@H](CCCCN)NC(=O)[C@H](CCC(=O)O)NC(=O)[C@H](CC(C)C)NC(=O)[C@H](Cc1ccc(O)cc1)NC(=O)[C@H](Cc1ccc(O)cc1)NC(=O)[C@H](CO)NC(=O)[C@H](Cc1ccc(O)cc1)NC(=O)[C@H](CC(=O)O)NC(=O)[C@H](CO)NC(=O)[C@@H](NC(=O)[C@H](Cc1ccccc1)NC(=O)[C@@H](NC(=O)CNC(=O)[C@H](CCC(=O)O)NC(=O)C(C)(C)NC(=O)[C@@H](N)Cc1ccc(O)cc1)[C@@H](C)O)[C@@H](C)O)C(C)C)C(=O)N[C@@H](C)C(=O)NCC(=O)NCC(=O)N1CCC[C@H]1C(=O)N[C@@H](CO)C(=O)N[C@@H](CO)C(=O)NCC(=O)N[C@@H](C)C(=O)N1CCC[C@H]1C(=O)N1CCC[C@H]1C(=O)N1CCC[C@H]1C(=O)N[C@@H](CO)C(N)=O (H-Y[Aib]EGTFTSDYSYYLEKQAAC(X5)LFVQWLLAGGPSSGAPPPS-NH2) | 1310 | 490 |
| CC(C)C[C@H](NC(=O)[C@H](CC(C)C)NC(=O)[C@H](Cc1c[nH]c2ccccc12)NC(=O)[C@H](CCC(N)=O)NC(=O)[C@@H](NC(=O)[C@H](Cc1ccccc1)NC(=O)[C@H](CC(C)C)NC(=O)[C@H](CCCCN)NC(=O)[C@H](C)NC(=O)[C@H](C)NC(=O)[C@H](CCC(N)=O)NC(=O)[C@H](CCCCN)NC(=O)[C@H](CCC(=O)O)NC(=O)[C@H](CC(C)C)NC(=O)[C@H](CSCC(=O)NCCCC[C@H](NC(=O)COCCOCCNC(=O)COCCOCCNC(=O)CC[C@H](NC(=O)CCCCCCCCCCCCCCCCCCC(=O)O)C(=O)O)C(=O)O)NC(=O)[C@H](Cc1ccc(O)cc1)NC(=O)[C@H](CO)NC(=O)[C@H](Cc1ccc(O)cc1)NC(=O)[C@H](CC(=O)O)NC(=O)[C@H](CO)NC(=O)[C@@H](NC(=O)[C@H](Cc1ccccc1)NC(=O)[C@@H](NC(=O)CNC(=O)[C@H](CCC(=O)O)NC(=O)C(C)(C)NC(=O)[C@@H](N)Cc1ccc(O)cc1)[C@@H](C)O)[C@@H](C)O)C(C)C)C(=O)N[C@@H](C)C(=O)NCC(=O)NCC(=O)N1CCC[C@H]1C(=O)N[C@@H](CO)C(=O)N[C@@H](CO)C(=O)NCC(=O)N[C@@H](C)C(=O)N1CCC[C@H]1C(=O)N1CCC[C@H]1C(=O)N1CCC[C@H]1C(=O)N[C@@H](CO)C(N)=O (H-Y[Aib]EGTFTSDYSYC(X5)LEKQAAKLFVQWLLAGGPSSGAPPPS-NH2) | 420 | 1340 |
| CC(C)C[C@H](NC(=O)[C@H](CC(C)C)NC(=O)[C@H](Cc1c[nH]c2ccccc12)NC(=O)[C@H](CCC(N)=O)NC(=O)[C@@H](NC(=O)[C@H](Cc1ccccc1)NC(=O)[C@H](CS)NC(=O)[C@H](CCCCN)NC(=O)[C@H](C)NC(=O)[C@H](C)NC(=O)[C@H](CCC(N)=O)NC(=O)[C@H](CCCCN)NC(=O)[C@H](CCC(=O)O)NC(=O)[C@H](CC(C)C)NC(=O)[C@H](Cc1ccc(O)cc1)NC(=O)[C@H](Cc1ccc(O)cc1)NC(=O)[C@H](CO)NC(=O)[C@H](Cc1ccc(O)cc1)NC(=O)[C@H](CC(=O)O)NC(=O)[C@H](CO)NC(=O)[C@@H](NC(=O)[C@H](Cc1ccccc1)NC(=O)[C@@H](NC(=O)CNC(=O)[C@H](CCC(=O)O)NC(=O)C(C)(C)NC(=O)[C@@H](N)Cc1ccc(O)cc1)[C@@H](C)O)[C@@H](C)O)C(C)C)C(=O)N[C@@H](C)C(=O)NCC(=O)NCC(=O)N1CCC[C@H]1C(=O)N[C@@H](CO)C(=O)N[C@@H](CO)C(=O)NCC(=O)N[C@@H](C)C(=O)N1CCC[C@H]1C(=O)N1CCC[C@H]1C(=O)N1CCC[C@H]1C(=O)N[C@@H](CO)C(N)=O (H-Y[Aib]EGTFTSDYSYYLEKQAAKCFVQWLLAGGPSSGAPPPS-NH2) | 14800 | 6510 |
| CC(C)C[C@H](NC(=O)[C@H](CC(C)C)NC(=O)[C@H](Cc1c[nH]c2ccccc12)NC(=O)[C@H](CSCC(=O)NCCCC[C@H](NC(=O)CC[C@H](NC(=O)CC[C@H](NC(=O)COCCOCCNC(=O)CCCCCCCCCCCCCCCCC(=O)O)C(=O)O)C(=O)O)C(=O)O)NC(=O)[C@@H](NC(=O)[C@H](Cc1ccccc1)NC(=O)[C@H](CC(C)C)NC(=O)[C@H](CCCCN)NC(=O)[C@H](C)NC(=O)[C@H](C)NC(=O)[C@H](CCC(N)=O)NC(=O)[C@H](CCCCN)NC(=O)[C@H](CCC(=O)O)NC(=O)[C@H](CC(C)C)NC(=O)[C@H](Cc1ccc(O)cc1)NC(=O)[C@H](Cc1ccc(O)cc1)NC(=O)[C@H](CO)NC(=O)[C@H](Cc1ccc(O)cc1)NC(=O)[C@H](CC(=O)O)NC(=O)[C@H](CO)NC(=O)[C@@H](NC(=O)[C@H](Cc1ccccc1)NC(=O)[C@@H](NC(=O)CNC(=O)[C@H](CCC(=O)O)NC(=O)C(C)(C)NC(=O)[C@@H](N)Cc1ccc(O)cc1)[C@@H](C)O)[C@@H](C)O)C(C)C)C(=O)N[C@@H](C)C(=O)NCC(=O)NCC(=O)N1CCC[C@H]1C(=O)N[C@@H](CO)C(=O)N[C@@H](CO)C(=O)NCC(=O)N[C@@H](C)C(=O)N1CCC[C@H]1C(=O)N1CCC[C@H]1C(=O)N1CCC[C@H]1C(=O)N[C@@H](CO)C(N)=O (H-Y[Aib]EGTFTSDYSYYLEKQAAKLFVC(X3)WLLAGGPSSGAPPPS-NH2) | 460 | 290 |
| CC(C)C[C@H](NC(=O)[C@H](CCCCN)NC(=O)[C@H](C)NC(=O)[C@H](C)NC(=O)[C@H](CCC(N)=O)NC(=O)[C@H](CCCCN)NC(=O)[C@H](CCC(=O)O)NC(=O)[C@H](CC(C)C)NC(=O)[C@H](Cc1ccc(O)cc1)NC(=O)[C@H](Cc1ccc(O)cc1)NC(=O)[C@H](CO)NC(=O)[C@H](Cc1ccc(O)cc1)NC(=O)[C@H](CC(=O)O)NC(=O)[C@H](CO)NC(=O)[C@@H](NC(=O)[C@H](Cc1ccccc1)NC(=O)[C@@H](NC(=O)CNC(=O)[C@H](CCC(=O)O)NC(=O)C(C)(C)NC(=O)[C@@H](N)Cc1ccc(O)cc1)[C@@H](C)O)[C@@H](C)O)C(=O)N[C@@H](Cc1ccccc1)C(=O)N[C@H](C(=O)N[C@@H](CCC(N)=O)C(=O)N[C@@H](Cc1c[nH]c2ccccc12)C(=O)N[C@@H](CC(C)C)C(=O)N[C@@H](CS)C(=O)N[C@@H](C)C(=O)NCC(=O)NCC(=O)N1CCC[C@H]1C(=O)N[C@@H](CO)C(=O)N[C@@H](CO)C(=O)NCC(=O)N[C@@H](C)C(=O)N1CCC[C@H]1C(=O)N1CCC[C@H]1C(=O)N1CCC[C@H]1C(=O)N[C@@H](CO)C(N)=O)C(C)C (H-Y[Aib]EGTFTSDYSYYLEKQAAKLFVQWLCAGGPSSGAPPPS-NH2) | 2330 | 2830 |
| CC(C)C[C@H](NC(=O)[C@H](CC(C)C)NC(=O)[C@H](Cc1c[nH]c2ccccc12)NC(=O)[C@H](CCC(N)=O)NC(=O)[C@@H](NC(=O)[C@H](Cc1ccccc1)NC(=O)[C@H](CC(C)C)NC(=O)[C@H](CCCCN)NC(=O)[C@H](C)NC(=O)[C@H](C)NC(=O)[C@H](CCC(N)=O)NC(=O)[C@H](CCCCN)NC(=O)[C@H](CCC(=O)O)NC(=O)[C@H](CC(C)C)NC(=O)[C@H](CS)NC(=O)[C@H](Cc1ccc(O)cc1)NC(=O)[C@H](CO)NC(=O)[C@H](Cc1ccc(O)cc1)NC(=O)[C@H](CC(=O)O)NC(=O)[C@H](CO)NC(=O)[C@@H](NC(=O)[C@H](Cc1ccccc1)NC(=O)[C@@H](NC(=O)CNC(=O)[C@H](CCC(=O)O)NC(=O)C(C)(C)NC(=O)[C@@H](N)Cc1ccc(O)cc1)[C@@H](C)O)[C@@H](C)O)C(C)C)C(=O)N[C@@H](C)C(=O)NCC(=O)NCC(=O)N1CCC[C@H]1C(=O)N[C@@H](CO)C(=O)N[C@@H](CO)C(=O)NCC(=O)N[C@@H](C)C(=O)N1CCC[C@H]1C(=O)N1CCC[C@H]1C(=O)N1CCC[C@H]1C(=O)N[C@@H](CO)C(N)=O (H-Y[Aib]EGTFTSDYSYCLEKQAAKLFVQWLLAGGPSSGAPPPS-NH2) | 390 | 420 |
